The record followed here is US6482849B1, “Inhibitors of α4β1 mediated cell adhesion” (Tanabe Seiyaku Co., Ltd., priority 1997, dated 2002).

The target in data set [1] is T1, α4β1 integrin (Jurkat cell adhesion to immobilized CS-1 derived peptide CLHPGEILDVPST) (Homo sapiens, UniProt P05556+P13612).
T1 construct: 100 μl of Jurkat cells (2.5×10^6 cells/ml) in DMEM plus BSA; endogenous in cells; host or cells: Jurkat T-cell line
Kind of data set: Jurkat-CS-1 Assay. It counts as cell-based. The conditions noted are these: Jurkat cells on CS-1 peptide coated plates. How it is done:
The CS-1 derived peptide, CLHPGEILDVPST, and the scrambled control peptide, CLHGPIELVSDPT, were synthesized on a Beckman 990 synthesizer using t-Boc methodology. The peptides were immobilized onto microtiter plates using the heterobifunctional crosslinker 3-(2-pyridyldithio)propionic acid N-hydroxysuccinimide ester (SPDP) as reported by Pierschbacher et al., Proc. Natl. Acad. USA, 80:1224-1227 (1983). Microtiter plates were coated with 20 μg/ml HSA for 2 hr. at room temperature, washed once with PBS and derivatized with 10 μg/ml SPDP for 1 hr. After washing, 100 μl of a 100 μg/ml cysteine containing peptide solution which had been recently dissolved was added to the wells and allowed to crosslink to the plates overnight at 4° C. Unbound peptide was removed from plates by washing with PBS. To block non-reacted sites, the plates are coated with 100 μl of a 2.5 mg/ml BSA solution in PBS for 1 hr. at 37° C. 100 μl of Jurkat cells (2.5×10^6 cells/ml) in DMEM plus BSA (2.5 mg/ml) was mixed with an appropriate concentration of the compound to be tested and the mixture was added to peptide coated dishes and incubated for 1 hr. at 37° C. Generally 100, 20, 5 and 1.25 μM concentrations of the compound were tested.
Following this incubation the plates were washed once with PBS and the attached cells were fixed with 3% paraformaldehyde in PBS and stained with 0.5% toluidine blue in 3.7% formaldehyde. The cells were stained overnight at room temperature and the optical density at 590 nm of toluidine blue stained cells was determined using a vertical pathway spectrophotometer to quantitate attachment (VMAX Kinetic Microplate Reader, Molecular Devices, Menlo Park, Calif.). This procedure is a modification of a previously published method (Cardarelli et al, J. Biol. Chem., 269:18668-18673 (1994) and Cardarelli et al, Proc. Natl. Acad. Sci. USA, 83:2647-2651 (1986)).

The target in data set [2] is T2, α4β1 integrin (Jurkat T-cell adhesion to IL-1 stimulated endothelial cell monolayers) (Homo sapiens, UniProt P05556+P13612).
T2 construct: a T-cell line, Jurkat, known to express the α4β1 integrin; host or cells: Jurkat T-cell line
T2 sequence (P13612 34-1032): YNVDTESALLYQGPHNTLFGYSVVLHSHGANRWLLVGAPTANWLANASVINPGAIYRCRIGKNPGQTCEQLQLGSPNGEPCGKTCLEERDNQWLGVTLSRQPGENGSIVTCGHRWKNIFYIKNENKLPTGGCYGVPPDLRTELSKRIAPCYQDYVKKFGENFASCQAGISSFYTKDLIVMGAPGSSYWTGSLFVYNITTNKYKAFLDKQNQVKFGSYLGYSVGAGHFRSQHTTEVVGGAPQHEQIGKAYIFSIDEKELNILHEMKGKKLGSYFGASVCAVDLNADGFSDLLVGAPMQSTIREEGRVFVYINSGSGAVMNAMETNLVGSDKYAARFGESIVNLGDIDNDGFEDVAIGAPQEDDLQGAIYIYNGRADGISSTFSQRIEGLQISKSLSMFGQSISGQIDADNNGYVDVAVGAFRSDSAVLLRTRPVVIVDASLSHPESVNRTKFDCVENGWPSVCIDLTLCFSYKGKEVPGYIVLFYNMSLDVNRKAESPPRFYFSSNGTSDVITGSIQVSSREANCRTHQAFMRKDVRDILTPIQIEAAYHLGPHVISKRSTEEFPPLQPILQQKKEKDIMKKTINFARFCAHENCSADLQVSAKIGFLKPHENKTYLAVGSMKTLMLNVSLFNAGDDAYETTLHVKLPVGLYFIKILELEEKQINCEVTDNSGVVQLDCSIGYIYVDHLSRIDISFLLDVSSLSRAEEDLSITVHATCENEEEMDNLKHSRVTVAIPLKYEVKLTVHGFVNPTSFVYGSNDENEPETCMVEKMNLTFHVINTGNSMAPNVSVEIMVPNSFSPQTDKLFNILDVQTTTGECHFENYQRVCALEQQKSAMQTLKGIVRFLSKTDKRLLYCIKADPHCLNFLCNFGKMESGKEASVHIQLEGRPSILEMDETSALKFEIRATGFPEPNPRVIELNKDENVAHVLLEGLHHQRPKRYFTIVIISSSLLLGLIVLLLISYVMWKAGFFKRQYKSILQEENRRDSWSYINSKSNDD
T2 sequence (P05556 21-798): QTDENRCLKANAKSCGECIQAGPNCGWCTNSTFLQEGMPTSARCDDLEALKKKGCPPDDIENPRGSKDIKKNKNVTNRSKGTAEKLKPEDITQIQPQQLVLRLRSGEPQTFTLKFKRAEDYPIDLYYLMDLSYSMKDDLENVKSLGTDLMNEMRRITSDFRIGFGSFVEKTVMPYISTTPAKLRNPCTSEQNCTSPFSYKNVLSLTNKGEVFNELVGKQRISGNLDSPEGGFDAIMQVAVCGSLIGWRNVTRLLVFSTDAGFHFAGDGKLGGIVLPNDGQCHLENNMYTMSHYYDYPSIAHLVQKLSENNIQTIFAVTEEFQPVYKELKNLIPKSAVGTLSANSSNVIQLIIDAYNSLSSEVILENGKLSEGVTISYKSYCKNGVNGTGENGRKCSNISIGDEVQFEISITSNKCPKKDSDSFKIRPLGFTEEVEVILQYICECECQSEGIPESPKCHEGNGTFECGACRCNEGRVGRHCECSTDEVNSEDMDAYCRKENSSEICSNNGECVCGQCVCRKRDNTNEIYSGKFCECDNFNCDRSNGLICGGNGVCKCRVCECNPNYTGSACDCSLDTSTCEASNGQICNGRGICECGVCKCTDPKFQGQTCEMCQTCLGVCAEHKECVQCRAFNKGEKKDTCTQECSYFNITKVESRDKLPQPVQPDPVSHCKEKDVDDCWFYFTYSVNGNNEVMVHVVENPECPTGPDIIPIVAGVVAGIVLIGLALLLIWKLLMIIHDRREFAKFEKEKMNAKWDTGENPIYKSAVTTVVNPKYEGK
Kind of data set: Jurkat-Endothelial Cell Adhesion Assay (Jurkat EC). It counts as cell-based. The following applies: Jurkat cells on IL-1 stimulated HUVEC monolayers. How it is done: The following assay established the activity of the present compounds in inhibiting β1-mediated cell adhesion in a representative in vitro system. This assay measures the adhesive interactions of a T-cell line, Jurkat, known to express the α4β1 integrin, to endothelial monolayers in the presence of test compounds. The test compounds were added in increasing concentrations to T-cells and then the T-cell compound mixture was added to IL-1 stimulated endothelial cell monolayers. The plates were incubated, washed and the percentage of attached cells was quantitated. […] Human umbilical vein endothelial cells were purchased from Clonetics (San Diego, Calif.) at passage number 2. The cells were grown on 0.5% porcine skin gelatin pre-coated flasks (Sigma, St. Louis Mo.) in EGM-UV media (Clonetics, San Diego, Calif.) supplemented with 10% fetal bovine serum. Cells are refed every 2-3 days reaching confluence by day 4 to 6. […] The endothelial cells are not used following passage 6. Am The T-cell line Jurkat was obtained from American Type Tissue Culture Collection (Rockville, Md.) and the cells were cultured in RPMI containing 10% fetal calf serum. The cells were washed twice in Hank's Balanced Salt Solution (HBSS) and resuspended in Dulbecco's […] Eagle's Media (DMEM) containing 2.5 mg/ml Human Serum Albumin (HSA). Jurkat cells (1×10^6 cells/ml) were stained with 10 ng/ml BCECF-AM z z (Molecular Probes, Eugene, Ore.)) in HBSS without phenol red. The cells were loaded with BCECF for 60 minutes in the dark at 37° C., washed 2 times, and resusupended in DMEM-HSA solution.
Confluent endothelial monolayers, grown in 96-well tissue culture plates, were stimulated for 4 hr. at 37° C. with 0.1 ng/ml (˜50 U/ml) recombinant IL-1 (Amgen, Thousand Oaks, Calif.). Following this incubation, the monolayers were washed twice with HBSS and 0.1 ml of DMEM-HSA solution was added. Jurkat cells (5×10^5 cells) were combined with the appropriate concentration of the test compound and 0.1 ml of the Jurkat cell-compound mixture was added to the endothelial cell monolayers. Generally, 100, 20, 5 and 1.25 μM compound concentrations were tested. […] The plates were placed on ice for 5 minutes to allow for Jurkat cell settling and the plates were incubated at 37° C. for 20 minutes. Following this incubation, the monolayers were washed twice with PBS containing 1 mM calcium chloride and 1 mM magnesium chloride and the plates were read using a Millipore Cytofluor 2300 (Marlboro, Mass.). Fluorescence in each well was measured as Arbitrary Fluorescence Units and percent adhesion in the absence of compound was adjusted to 100% and the % adhesion in the presence of compound was calculated. Monolayers were also fixed in 3% paraformaldehyde and evaluated microscopically to verify the adhesion. This procedure is a modification of a previously published method (Cardarelli et al., J. Biol. Chem. 269:18668-18673 (1994)).

T1 sequence (P13612 34-1032): as the sequence (P13612 34-1032) above
T1 sequence (P05556 21-798): as the sequence (P05556 21-798) above

As to `COC(=O)C(Cc1cn(Cc2ccc(Cl)c(Cl)c2)cn1)NC(=O)[C@H]1CC[C@@](C)(C(=O)O)C1(C)C` (stereo in doubt) [Example 3, (1S-cis)-N-[(3-Carboxy-2,2,3-trimethylcyclopentyl)carbonyl]-1-[(3,4-dichlorophenyl)methyl]-L-histidine methyl ester], the melting point was 174 to 175 °C (dec.). In the case of `CC1(C)[C@@H](C(=O)N[C@@H](Cc2ccc(OCc3ccccc3)cc2)C(=O)O)CC[C@@]1(C)C(=O)O` [Example 2, (1S-cis)-N-[(3-Carboxy-2,2,3-trimethylcyclopentyl)carbonyl]-O-(phenylmethyl)-L-tyrosine], the melting point was in the range of 146 to 149 °C. This molecule yielded an IC50 in data set [1] of 0.5 to 1 µM. On to `CC1(C)[C@@H](C(=O)N[C@@H](Cc2ccc(OCC3CCCCC3)cc2)C(=O)O)CC[C@@]1(C)C(=O)O` [Example 13], for which the melting point fell in the range of 102 to 105 °C. In data set [1], this molecule had an IC50 of 0.5 to 1 µM. Besides, the IC50 in data set [2] fell in the range of 5 to 10 µM.

In the case of `CCCCC(CC)COc1ccc(CC(NC(=O)C2CCC(C)(C(=O)O)C2(C)C)C(=O)O)cc1` (stereo not shown) [Example 14], the melting point fell in the range of 94 to 97 °C. In data set [2], this molecule had an IC50 of 5 to 10 µM. `CC1(C)[C@@H](C(=O)N[C@@H](Cc2cn(Cc3ccccc3)cn2)C(=O)O)CC[C@@]1(C)C(=O)O` [Example 29]: the melting point was 258 to 259 °C (dec.). The molecule also registered an IC50 in data set [1] of 0.5 to 1 µM. Also, the IC50 in data set [2] is 5 to 10 µM.

In turn, `CC1(C)[C@@H](C(=O)N[C@@H](Cc2cccc(OCc3ccccc3)c2)C(=O)O)CC[C@@]1(C)C(=O)O` [Example 46] displayed a melting point of 88 to 90 °C. This molecule yielded an IC50 in data set [2] of 0.8 to 5 µM.

Molecule `CC1(C)[C@@H](C(=O)N[C@@H](Cc2ccc(O)c(NC(=O)c3c(Cl)cccc3Cl)c2)C(=O)O)CC[C@@]1(C)C(=O)O` [Example 61] had a melting point of 168 to 171 °C. Besides, the concentration for half-maximal inhibition (IC50) in data set [1] lay within 0.08 to 0.5 µM. In data set [2], this molecule came in with an IC50 of 0.8 to 5 µM.

Turning to `CC1(C)[C@@H](C(=O)N[C@@H](Cc2ccc(NC(=O)C3CCCCC3)cc2)C(=O)O)CC[C@@]1(C)C(=O)O` [Example 75], the melting point lay in the range of 151 to 154 °C. In data set [2], this molecule came in with an IC50 of 0.8 to 5 µM. For the molecule `CC1(C)[C@@H](C(=O)N[C@@H](Cc2ccc(NC(=O)c3ccccn3)cc2)C(=O)O)CC[C@@]1(C)C(=O)O` [Example 77], the melting point lay within 102 to 104 °C. The molecule also showed an IC50 in data set [1] of 0.08 to 0.5 µM. Also, in data set [2], the IC50 was 0.8 to 5 µM. As to `CC(=O)Nc1ccc(C[C@H](NC(=O)[C@H]2CC[C@@](C)(C(=O)O)C2(C)C)C(=O)O)cc1` [Example 79], the melting point lay within 238 to 240 °C. The molecule also gave an IC50 in data set [2] of 5 to 10 µM.

Regarding `CCCCCCCc1ccc(C(=O)Nc2ccc(C[C@H](NC(=O)[C@H]3CC[C@@](C)(C(=O)O)C3(C)C)C(=O)O)cc2)cc1` [Example 122], the melting point lay within 212 to 214 °C. Moreover, the IC50 in data set [2] lay in the range of 0.8 to 5 µM.

For the molecule `CC(C)CC(=O)Nc1ccc(C[C@H](NC(=O)[C@H]2CC[C@@](C)(C(=O)O)C2(C)C)C(=O)O)cc1` [Example 134], the melting point was 146 to 148 °C. This molecule also showed an IC50 in data set [2] of 0.8 to 5 µM.

`CC1(C)[C@@H](C(=O)N[C@@H](Cc2ccc(NC(=O)c3ccccc3O)cc2)C(=O)O)CC[C@@]1(C)C(=O)O` [Example 143]: the melting point fell in the range of 148 to 150 °C. Further, the IC50 in data set [1] lay within 0.5 to 1 µM. The molecule `CONC(=O)[C@]1(C)CC[C@H](C(=O)N[C@@H](Cc2ccc(OCc3c(Cl)cccc3Cl)cc2)C(=O)O)C1(C)C` [Example 163] came in with a melting point of 70 to 72 °C. Also, the IC50 in data set [1] lay in the range of 0.5 to 1 µM. As for `CC(=O)N(Cc1c(Cl)cccc1Cl)c1ccc(C[C@H](NC(=O)[C@H]2CC[C@@](C)(C(=O)O)C2(C)C)C(=O)O)cc1` [Example 170], the melting point was in the range of 241 to 244 °C. The molecule also showed an IC50 in data set [2] of 5 to 10 µM. For the molecule `CC(C)(C)OC(=O)[C@]1(C)CC[C@H](C(=O)N[C@@H](Cc2cn(Cc3ccc(Cl)c(Cl)c3)cn2)C(=O)O)C1(C)C` [Example 202, (1S-cis)-1-[(3,4-Dichlorophenyl)methyl]-N-[[3-[(1,1-dimethylethoxy)carbonyl]-2,2,3-trimethylcyclopentyl]carbonyl]-L-histidine], the melting point was in the range of 234 to 235 °C. In the case of `COC(=O)[C@H](Cc1ccc(NC(=O)c2c(Cl)cccc2Cl)cc1)NC(=O)[C@H]1CC[C@@](C)(C(=O)NCC(N)=O)C1(C)C` [Example 233, (1S-cis)-N-[[3-[[(2-Amino-2-oxoethyl)amino]carbonyl]-2,2,3-trimethylcyclopentyl]carbonyl]-4-[(2,6-dichlorobenzoyl)amino]-L-phenylalanine methyl ester], the melting point was 232 to 233 °C. In the case of `CC1(C)[C@@H](C(=O)N[C@H](Cc2ccc(NC(=O)c3c(Cl)cccc3Cl)cc2)C(=O)O)CC[C@@]1(C)C(=O)O` [Example 237, (1S-cis)-N-[(3-Carboxy-2,2,3-trimethylcyclopentyl)carbonyl]-4-[(2,6-dichlorobenzoyl)amino]-D-phenylalanine], the melting point fell in the range of 263 to 267 °C. `CC1(C)[C@H](C(=O)O)CC[C@]1(C)C(=O)N[C@@H](Cc1ccc(NC(=O)c2c(Cl)cccc2Cl)cc1)C(=O)O` [Example 244, (1S-cis)-N-[(3-Carboxy-1,2,2-trimethylcyclopentyl)carbonyl]-4-[(2,6-dichlorobenzoyl)amino]-L-phenylalanine]: the melting point lay in the range of 152 to 157 °C. Still for that read-out and setting: as for `CC1(C)[C@@H](C(=O)O)CC[C@]1(C)C(=O)N[C@H](Cc1ccc(NC(=O)c2c(Cl)cccc2Cl)cc1)C(=O)O` [Example 246, (1S-trans)-N-[(3-Carboxy-1,2,2-trimethylcyclopentyl)carbonyl]-4-[(2,6-dichlorobenzoyl)amino]-D-phenylalanine], the figure is 145 to 150 °C; as for `CC1(C)[C@H](C(=O)O)CC[C@@]1(C)C(=O)N[C@@H](Cc1ccc(NC(=O)c2c(Cl)cccc2Cl)cc1)C(=O)O` [Example 250, (1R-trans)-N-[(3-Carboxy-1,2,2-trimethylcyclopentyl)carbonyl]-4-[(2,6-dichlorobenzoyl)amino]-L-phenylalanine], 148 to 155 °C. In turn, `CC1(C)[C@@H](C(=O)N[C@@H](Cc2ccc(NC(=O)c3c(Cl)cccc3Cl)c(Br)c2)C(=O)O)CC[C@@]1(C)C(=O)O` [Example 252, (1S-cis)-N-[(3-Carboxy-2,2,3-trimethylcyclopentyl)carbonyl]-3-bromo-4-[(2,6-dichlorobenzoyl)amino]-L-phenylalanine] gave a melting point of 150 to 152 °C.

Usually melting point stands for the temperature, or range, at which the solid turns liquid. A word on the IC50: it is the concentration needed to halve the response being measured.
